Here are results for one molecule from US7642255B2, “Compounds and compositions as protein kinase inhibitors” (IRM LLC, priority 2004, dated 2010).

What all share (type): cell-based
In one assay the target is T1, wild type Bcr-abl (Homo sapiens, UniProt P00519).
T1 construct: BCR (N-terminal fusion partner); expressed in transfected cells; host or cells: Ba/F3 cells; the other entry of the earlier key: BCR (P11274, Breakpoint cluster region protein)
Kind of assay: Antiproliferative effect on Ba/F3 cells expressing wild type BCR-Abl. Here is the method:
(§1) 32D-p210 cells are plated into 96 well TC plates at a density of 15,000 cells per well. 50 μL of two fold serial dilutions of the test compound (Cmax is 40 μM) are added to each well (STI571 is included as a positive control). After incubating the cells for 48 hours at 37° C., 5% CO2, 15 μL of MTT (Promega) is added to each well and the cells are incubated for an additional 5 hours. The optical density at 570 nm is quantified spectrophotometrically and IC50 values, the concentration of compound required for 50% inhibition, determined from a dose response curve.
(§2) Compounds of the invention are tested for their antiproliferative effect on Ba/F3 cells expressing either wild type or the mutant forms of BCR-Abl (G250E, E255V, T3151, F317L, M351T) that confers resistance or diminished sensitivity to STI571. The antiproliferative effect of these compounds on the mutant-BCR-Abl expressing cells and on the non transformed cells were tested at 10, 3.3, 1.1 and 0.37 μM as described above (in media lacking IL3). The IC50 values of the compounds lacking toxicity on the untransformed cells were determined from the dose response curves obtained as describe above.

The target in the next assay is T2, G250E Bcr-abl (Homo sapiens, UniProt P00519, G250E).
T2 construct: BCR (N-terminal fusion partner); expressed in transfected cells; host or cells: Ba/F3 cells; the other entry of the earlier key: BCR (P11274, Breakpoint cluster region protein)
Kind of assay: Antiproliferative effect on Ba/F3 cells expressing mutant BCR-Abl G250E. Here is the method:
as §1, §2

The next assay addresses T3, E255V Bcr-abl (Homo sapiens, UniProt P00519, E255V).
T3 construct: BCR (N-terminal fusion partner); expressed in transfected cells; host or cells: Ba/F3 cells; the other entry of the earlier key: BCR (P11274, Breakpoint cluster region protein)
In words: Antiproliferative effect on Ba/F3 cells expressing mutant BCR-Abl E255V. The protocol: as §1, §2

The target in the next assay is T4, T3151 Bcr-abl (Homo sapiens, UniProt P00519, T315I).
T4 construct: BCR (N-terminal fusion partner); expressed in transfected cells; host or cells: Ba/F3 cells
Kind of assay: Antiproliferative effect on Ba/F3 cells expressing mutant BCR-Abl T3151. Here is the method:
as §1, §2

Another assay addresses T5, F317L Bcr-abl (Homo sapiens, UniProt P00519, F317L).
T5 construct: BCR (N-terminal fusion partner); expressed in transfected cells; host or cells: Ba/F3 cells; the other entry of the earlier key: BCR (P11274, Breakpoint cluster region protein)
In words: Antiproliferative effect on Ba/F3 cells expressing mutant BCR-Abl F317L. Here is the method: as §1, §2

A further assay concerns the target T6, M351T Bcr-abl (Homo sapiens, UniProt P00519, M351T).
T6 construct: BCR (N-terminal fusion partner); expressed in transfected cells; host or cells: Ba/F3 cells; the other entry of the earlier key: BCR (P11274, Breakpoint cluster region protein)
Kind of assay: Antiproliferative effect on Ba/F3 cells expressing mutant BCR-Abl M351T. The protocol:
as §1, §2

For `Cc1ccc(NC(=O)c2cccc(C(F)(F)F)c2)cc1N1Cc2cnc(Nc3cccc(N)c3)nc2N(C)C1=O` [Example 2, N-{3-[7-(3-Amino-phenylamino)-1-methyl-2-oxo-1,4-dihydro-2H-pyrimido[4,5-d]pyrimidin-3-yl]-4-methyl-phenyl}-3-trifluoromethyl-benzamide], the half-maximal inhibitory concentration (IC50) on wild type Bcr-abl is 5 nM; at G250E Bcr-abl, 2 nM; against E255V Bcr-abl, 5 nM; against T3151 Bcr-abl, 3 nM; on F317L Bcr-abl, 5 nM; on M351T Bcr-abl it was 5 nM.
